In series [1] the test system is acute liver failure induced by acetaminophen (APAP). The experiment in a line: ALT assay in mouse models of APAP-induced acute liver failure. It is filed as in vivo. To be noted: 10 ug of free PEN, 1 hour before APAP. The protocol: On the assumption that the PAOX polymers rapidly deliver drugs to the cytoplasm due to high hydrolysis rate and proton sponge effects, which leads to more rapid treatment, mouse models of acute liver failure (ALF) were used as experimental models, and pentoxifylline (PEN) was used as a drug model.
In order to investigate the cytotoxicity of PAOX-PEN particles prepared by the method as described in the above section 7, a tetrazolium-based colorimetric MTT assay was performed. Moreover, an alanine transaminase (ALT) assay, which is mainly used for evaluation of liver functions, was performed to evaluate the effect of PAOX-PEN particles in terms of the amount of drug loaded in PAOX-PEN particles and daily dosages.
6-week-old BALB/c female mice were used for the experiments and classified into each group. The PAOX-PEN particles were dispersed in 10 mg/mL (PBS), and each of 50 μL, 100 μL, and 200 μL of the resulting solution was injected into mouse tail veins. In the case of free PEN, the drug solution was administered with the calculation of dose and, only PBS was administered to the negative control groups. After 1 hour, 200 μL of APAP in a concentration of 25 mg/mL was injected intraperitoneally to induce acute liver failure. The mice were sacrificed 10 hours later, and blood was taken from the heart. […]

For series [2] the following is noted: oral intake; cited from earlier work.
The next series deals with RAW 264.7 cells. In words: Catalase delivery: PMA-induced hydrogen peroxide, DCFH-DA fluorescence by flow cytometry. It is filed as cell-based. The note with it: pretreatment 12 hours, then PMA stimulation. How it is done: To investigate the ability of PAOX particles to deliver protein drugs, catalase was used as a model protein drug. RAW 264.7 cells (1×10^6 cells) were pretreated with catalase, catalase-loaded PAOX particles, catalase-loaded PLGA particles or empty PAOX particles for 12 hours and then stimulated with 1 μg of PMA (phorbol-12-myristate-13-acetate) to induce the production of hydrogen peroxide. PMA was used to stimulate cells for the production of reactive oxygen species including hydrogen peroxide. Then, DCFH-DA (dichlorofluorescin-diacetate) was added to each well and incubated for 30 minutes. The efficacy of PAOX particles to deliver catalase to cells was evaluated by measuring the intensity of the fluorescence produced by DCFH-DA with a flow cytometry caliber (Becton Dickinson, US).

Consider three molecules from US8920793B2, “Biodegradable PAOX polymer particle with cationic property” (Industrial Cooperation Foundation Chonbuk National …, priority 2011, dated 2014).

For `CC(=O)CCCCn1c(=O)c2c(ncn2C)n(C)c1=O` [free PEN, pentoxifylline], the ALT reduction effect entry in series [1] was “no ALT reduction effects”.
Regarding `OCC1CCC(CO)CC1` (stereo not drawn) [1,4-cyclohexanedimethanol], in series [2], the LD50 is listed as 3,200 mg/kg.

B1: catalase (protein, UniProt P00432 2-527, looked up)
Catalase: ADNRDPASDQMKHWKEQRAAQKPDVLTTGGGNPVGDKLNSLTVGPRGPLLVQDVVFTDEMAHFDRERIPERVVHAKGAGAFGYFEVTHDITRYSKAKVFEHIGKRTPIAVRFSTVAGESGSADTVRDPRGFAVKFYTEDGNWDLVGNNTPIFFIRDALLFPSFIHSQKRNPQTHLKDPDMVWDFWSLRPESLHQVSFLFSDRGIPDGHRHMNGYGSHTFKLVNANGEAVYCKFHYKTDQGIKNLSVEDAARLAHEDPDYGLRDLFNAIATGNYPSWTLYIQVMTFSEAEIFPFNPFDLTKVWPHGDYPLIPVGKLVLNRNPVNYFAEVEQLAFDPSNMPPGIEPSPDKMLQGRLFAYPDTHRHRLGPNYLQIPVNCPYRARVANYQRDGPMCMMDNQGGAPNYYPNSFSAPEHQPSALEHRTHFSGDVQRFNSANDDNVTQVRTFYLKVLNEEQRKRLCENIAGHLKDAQLFIQKKAVKNFSDVHPEYGSRIQALLDKYNEEKPKNAVHTYVQHGSHLSAREKANL
In the case of B1, the “inhibitory effect on PMA-induced fluorescence” value with RAW 264.7 cells is “no inhibitory effects”.
